Columns and labels:
human P2Y13 (GPR86) = molecular target: T1, human P2Y13 (GPR86) (Homo sapiens, UniProt Q9BPV8, T179M); test: Antagonism of ADP-induced IP3 accumulation in human P2Y13-AG32 cells; type: cell-based; settings: 10 min pre-incubation, then ADP 100 nM for 30 s; means±S.D. of three independent experiments
T1 construct: expressed in transfected cells; host or cells: 1321N1 astrocytoma clone AG32 (stably expressing Gα16 from pERAEQ2), G418-selected
T1 sequence (Q9BPV8 22-354 T179M): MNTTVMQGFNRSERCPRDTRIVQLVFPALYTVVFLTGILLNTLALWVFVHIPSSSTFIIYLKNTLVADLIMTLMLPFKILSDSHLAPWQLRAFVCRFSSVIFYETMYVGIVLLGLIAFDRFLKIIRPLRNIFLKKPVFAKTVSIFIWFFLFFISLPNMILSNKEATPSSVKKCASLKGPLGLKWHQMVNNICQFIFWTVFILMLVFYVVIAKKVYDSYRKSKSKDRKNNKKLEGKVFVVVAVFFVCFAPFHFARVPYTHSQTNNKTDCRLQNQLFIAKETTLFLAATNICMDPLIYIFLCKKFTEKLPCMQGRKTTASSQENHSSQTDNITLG
Method: Antagonist were tested on AG32 cells transfected with human GPR86. AG32 cells were seeded (200,000 cells per dish) on 35 mm (diameter) Petri dishes and labeled for 24 h with 5 μCi/ml [^3H]-myoinositol in inositol free DMEM containing 5% fetal calf serum, antibiotics, amphotericin, sodium pyruvate, and 400 μg/ml of G418. […] Prior to the stimulation, cells were pre-incubated for 10 min in presence of Reactive Blue 2 (RB-2), Suramine, PPADS or MRS-2179. The cells were then incubated in presence of ADP 100 nM for 30 s. The incubation was stopped by the addition of 1 ml of an ice-cold 3% perchloric acid solution. […] The data represent the mean±S.D. of triplicate experimental points obtained in one representative experiment of three.

[1] = system: 1321N1 cells expressing GPR86 receptor alone; settings: nucleotides 100 μM for 30 s

IC50 (human P2Y13 (GPR86)) [nM]	Molecule	IP3 response [1]
> 100000	CNc1ncnc2c1ncn2[C@H]1C[C@H](OP(=O)(O)O)[C@@H](COP(=O)(O)O)O1 [MRS-2179]	
11700 ± 900	Cc1nc(N=Nc2ccc(S(=O)(=O)O)cc2S(=O)(=O)O)c(COP(=O)(O)O)c(C=O)c1O [PPADS]	
2300 ± 400	Cc1ccc(C(=O)Nc2ccc(S(=O)(=O)O)c3cc(S(=O)(=O)O)cc(S(=O)(=O)O)c23)cc1NC(=O)c1cccc(NC(=O)Nc2cccc(C(=O)Nc3cc(C(=O)Nc4ccc(S(=O)(=O)O)c5cc(S(=O)(=O)O)cc(S(=O)(=O)O)c45)ccc3C)c2)c1 [Suramine]	
	NCCc1c[nH]cn1 [histamine]	strong IP3 response

Molecule	IC50 (human P2Y13 (GPR86)) [nM]	IP3 response [1]
Reactive Blue 2	1900 ± 100	

From patent US7422846B2, “Natural ligand for orphan G protein coupled receptor GPR86 and methods of use” (Euroscreen S.A, priority 2001, dated 2008)
